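Dose response: 5 concentrations. Exposure: 48 h. Format: 96-well plates. Endpoint: linear interpolation; highest concentration if not reached. At the GI50, growth is halved. TGI denotes the concentration required for complete inhibition of growth.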
How the values were obtained:
Experiment in all cases: DTP human tumour cell line panel, 48 h
SF-268 CNS = system: SF-268 CNS
HCT-15 colon = system: HCT-15 colon
SW-620 colon = system: SW-620 colon
CAKI-1 renal = system: CAKI-1 renal
RPMI-8226 leukemia = system: RPMI-8226 leukemia
SNB-75 CNS = system: SNB-75 CNS
ACHN renal = system: ACHN renal
HCC-2998 colon = system: HCC-2998 colon
BT-549 breast = system: BT-549 breast
TK-10 renal = system: TK-10 renal
NCI/ADR-RES ovarian = system: NCI/ADR-RES ovarian
M14 melanoma = system: M14 melanoma
MOLT-4 leukemia = system: MOLT-4 leukemia
NCI-H522 lung = system: NCI-H522 lung
HL-60(TB) leukemia = system: HL-60(TB) leukemia
SR leukemia = system: SR leukemia
NCI-H460 lung = system: NCI-H460 lung
SK-OV-3 ovarian = system: SK-OV-3 ovarian
A549 NSCLC = system: A549 NSCLC
UACC-62 melanoma = system: UACC-62 melanoma
NCI-H226 lung = system: NCI-H226 lung
MALME-3M melanoma = system: MALME-3M melanoma
HOP-92 NSCLC = system: HOP-92 NSCLC
HS 578T breast = system: HS 578T breast
COLO 205 colon = system: COLO 205 colon
IGROV1 ovarian = system: IGROV1 ovarian
DU-145 prostate = system: DU-145 prostate
UACC-257 melanoma = system: UACC-257 melanoma
RXF 393 renal = system: RXF 393 renal
LOX IMVI melanoma = system: LOX IMVI melanoma
HT29 colon = system: HT29 colon
SNB-19 CNS = system: SNB-19 CNS
OVCAR-8 ovarian = system: OVCAR-8 ovarian
MDA-MB-435 = system: MDA-MB-435
KM12 colon = system: KM12 colon
T-47D breast = system: T-47D breast
NCI-H23 lung = system: NCI-H23 lung
CCRF-CEM leukemia = system: CCRF-CEM leukemia
OVCAR-4 ovarian = system: OVCAR-4 ovarian
UO-31 renal = system: UO-31 renal
SF-539 CNS = system: SF-539 CNS
MCF7 breast = system: MCF7 breast
SF-295 CNS = system: SF-295 CNS
SN12C renal = system: SN12C renal
HOP-62 NSCLC = system: HOP-62 NSCLC
OVCAR-5 ovarian = system: OVCAR-5 ovarian
SK-MEL-2 melanoma = system: SK-MEL-2 melanoma
OVCAR-3 ovarian = system: OVCAR-3 ovarian
A498 renal = system: A498 renal
EKVX NSCLC = system: EKVX NSCLC
MDA-MB-231 breast = system: MDA-MB-231 breast
HCT-116 colon = system: HCT-116 colon
K-562 leukemia = system: K-562 leukemia
PC-3 prostate = system: PC-3 prostate
786-0 renal = system: 786-0 renal
SK-MEL-28 melanoma = system: SK-MEL-28 melanoma
U251 CNS = system: U251 CNS
SK-MEL-5 melanoma = system: SK-MEL-5 melanoma

Q: Which results are given for `Cc1c(Cl)cccc1Nc1ncccc1C(=O)O`?
A: GI50 (SF-268 CNS): > 100 µM; TGI (SF-268 CNS): > 100 µM; GI50 (HCT-15 colon): 38.1 µM; TGI (HCT-15 colon): > 100 µM; GI50 (SW-620 colon): > 100 µM; TGI (SW-620 colon): > 100 µM; GI50 (CAKI-1 renal): 59 µM; TGI (CAKI-1 renal): > 100 µM; GI50 (RPMI-8226 leukemia): 47.7 µM; TGI (RPMI-8226 leukemia): > 100 µM; GI50 (SNB-75 CNS): > 100 µM; TGI (SNB-75 CNS): > 100 µM; GI50 (ACHN renal): 58.5 µM; TGI (ACHN renal): > 100 µM; GI50 (HCC-2998 colon): 63.3 µM; TGI (HCC-2998 colon): > 100 µM; GI50 (BT-549 breast): 61.2 µM; TGI (BT-549 breast): > 100 µM; GI50 (TK-10 renal): > 100 µM; TGI (TK-10 renal): > 100 µM; GI50 (NCI/ADR-RES ovarian): 78.7 µM; TGI (NCI/ADR-RES ovarian): > 100 µM; GI50 (M14 melanoma): > 100 µM; TGI (M14 melanoma): > 100 µM; GI50 (MOLT-4 leukemia): > 100 µM; TGI (MOLT-4 leukemia): > 100 µM; GI50 (NCI-H522 lung): 81.2 µM; TGI (NCI-H522 lung): > 100 µM; GI50 (HL-60(TB) leukemia): > 100 µM; TGI (HL-60(TB) leukemia): > 100 µM; GI50 (SR leukemia): > 100 µM; TGI (SR leukemia): > 100 µM; GI50 (NCI-H460 lung): 53 µM; TGI (NCI-H460 lung): > 100 µM; GI50 (SK-OV-3 ovarian): > 100 µM; TGI (SK-OV-3 ovarian): > 100 µM; GI50 (A549 NSCLC): > 100 µM; TGI (A549 NSCLC): > 100 µM; GI50 (UACC-62 melanoma): 48.3 µM; TGI (UACC-62 melanoma): > 100 µM; GI50 (NCI-H226 lung): > 100 µM; TGI (NCI-H226 lung): > 100 µM; GI50 (MALME-3M melanoma): 73.4 µM; TGI (MALME-3M melanoma): > 100 µM; GI50 (HOP-92 NSCLC): 41.6 µM; TGI (HOP-92 NSCLC): > 100 µM; GI50 (HS 578T breast): 63.1 µM; TGI (HS 578T breast): > 100 µM; GI50 (COLO 205 colon): 93.7 µM; TGI (COLO 205 colon): > 100 µM; GI50 (IGROV1 ovarian): > 100 µM; TGI (IGROV1 ovarian): > 100 µM; GI50 (DU-145 prostate): > 100 µM; TGI (DU-145 prostate): > 100 µM; GI50 (UACC-257 melanoma): > 100 µM; TGI (UACC-257 melanoma): > 100 µM; GI50 (RXF 393 renal): > 100 µM; TGI (RXF 393 renal): > 100 µM; GI50 (LOX IMVI melanoma): 54.9 µM; TGI (LOX IMVI melanoma): > 100 µM; GI50 (HT29 colon): > 100 µM; TGI (HT29 colon): > 100 µM; GI50 (SNB-19 CNS): > 100 µM; TGI (SNB-19 CNS): > 100 µM; GI50 (OVCAR-8 ovarian): > 100 µM; TGI (OVCAR-8 ovarian): > 100 µM; GI50 (MDA-MB-435): 82.9 µM; TGI (MDA-MB-435): > 100 µM; GI50 (KM12 colon): > 100 µM; TGI (KM12 colon): > 100 µM; GI50 (T-47D breast): 68 µM; TGI (T-47D breast): > 100 µM; GI50 (NCI-H23 lung): 58.3 µM; TGI (NCI-H23 lung): > 100 µM; GI50 (CCRF-CEM leukemia): 64.2 µM; TGI (CCRF-CEM leukemia): > 100 µM; GI50 (OVCAR-4 ovarian): 90.6 µM; TGI (OVCAR-4 ovarian): > 100 µM; GI50 (UO-31 renal): 55.7 µM; TGI (UO-31 renal): > 100 µM; GI50 (SF-539 CNS): 77.2 µM; TGI (SF-539 CNS): > 100 µM; GI50 (MCF7 breast): > 100 µM; TGI (MCF7 breast): > 100 µM; GI50 (SF-295 CNS): 16.7 µM; TGI (SF-295 CNS): 76.7 µM; GI50 (SN12C renal): > 100 µM; TGI (SN12C renal): > 100 µM; GI50 (HOP-62 NSCLC): > 100 µM; TGI (HOP-62 NSCLC): > 100 µM; GI50 (OVCAR-5 ovarian): > 100 µM; TGI (OVCAR-5 ovarian): > 100 µM; GI50 (SK-MEL-2 melanoma): > 100 µM; TGI (SK-MEL-2 melanoma): > 100 µM; GI50 (OVCAR-3 ovarian): 39.8 µM; TGI (OVCAR-3 ovarian): > 100 µM; GI50 (A498 renal): 34.3 µM; TGI (A498 renal): > 100 µM; GI50 (EKVX NSCLC): 34.1 µM; TGI (EKVX NSCLC): > 100 µM; GI50 (MDA-MB-231 breast): 92.3 µM; TGI (MDA-MB-231 breast): > 100 µM; GI50 (HCT-116 colon): 46.8 µM; TGI (HCT-116 colon): > 100 µM; GI50 (K-562 leukemia): 62.7 µM; TGI (K-562 leukemia): > 100 µM; GI50 (PC-3 prostate): 52.3 µM; TGI (PC-3 prostate): > 100 µM; GI50 (786-0 renal): 70.4 µM; TGI (786-0 renal): > 100 µM; GI50 (SK-MEL-28 melanoma): > 100 µM; TGI (SK-MEL-28 melanoma): > 100 µM; GI50 (U251 CNS): 63.4 µM; TGI (U251 CNS): > 100 µM; GI50 (SK-MEL-5 melanoma): 52.7 µM; TGI (SK-MEL-5 melanoma): > 100 µM

From PubChem BioAssay (NCI)
